PubChem BioAssay (NCI)
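Assay format: 96-well plates, 48-hour exposure. Definition used: TGI = concentration required for complete inhibition of growth.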

Experiments:
Test in all cases: DTP human tumour cell line panel, 48 h
SF-539 CNS = system: SF-539 CNS
786-0 renal = system: 786-0 renal
MDA-MB-231 breast = system: MDA-MB-231 breast
HT29 colon = system: HT29 colon
RPMI-8226 leukemia = system: RPMI-8226 leukemia
OVCAR-3 ovarian = system: OVCAR-3 ovarian
OVCAR-5 ovarian = system: OVCAR-5 ovarian
NCI-H522 lung = system: NCI-H522 lung
OVCAR-8 ovarian = system: OVCAR-8 ovarian
SK-OV-3 ovarian = system: SK-OV-3 ovarian

Row | Structure (SMILES) | TGI (SF-539 CNS) | TGI (786-0 renal) | TGI (MDA-MB-231 breast) | TGI (HT29 colon) | TGI (RPMI-8226 leukemia) | TGI (OVCAR-3 ovarian) | TGI (OVCAR-5 ovarian) | TGI (NCI-H522 lung) | TGI (OVCAR-8 ovarian) | TGI (SK-OV-3 ovarian)
1 | CCOP(=O)(OCC)C(c1ccc(F)cc1)N(C(=O)NC(F)(F)F)c1ccc(F)cc1 (stereo unspecified) | > 100 µM | > 100 µM | > 100 µM | > 100 µM | > 100 µM | > 100 µM | > 100 µM | > 100 µM | > 100 µM | –
2 | CC1[C@@]2(O[C@@H]3C=C4C5CCC6Cc7nc8c(nc7C[C@@]6(C)C5C[C@H](O)[C@@]4(C)[C@]13O)CC1CCc3c(cc4c5c3C(O)C[C@H]5[C@@H](C)C3(O4)OC(C)(C)CC3O)[C@]1(C)C8)O[C@@](C)(CO)C[C@@H]2O (stereo partly specified) | > 3.72 µM | – | – | 1.65 µM | 0.21 µM | > 3.72 µM | 1.48 µM | 2.39 µM | > 3.72 µM | 0.976 µM
3 | COc1ccc(N2C(=O)C3ON(Cc4ccc(CC(N)=O)cc4)C(c4c5ccccc5c(C)c5ccccc45)C3C2=O)cc1 (stereo unspecified) | – | > 100 µM | > 100 µM | 35 µM | – | > 100 µM | 83.8 µM | > 100 µM | > 100 µM | > 100 µM
4 | CC1=C[P+](c2ccccc2)(c2ccccc2)c2ccccc2O1 | 31.3 µM | > 100 µM | 21.6 µM | 15.7 µM | – | 9.4 µM | > 100 µM | 17.3 µM | > 100 µM | > 100 µM
5 | COc1ccc(-c2c(C#N)c(N)[nH]c(=S)c2C#N)cc1 | > 100 µM | 47.3 µM | > 100 µM | > 100 µM | 74.2 µM | > 100 µM | > 100 µM | 63 µM | > 100 µM | –
6 | CC(O)C(CO)NC(=O)C1CSSCC(NC(=O)C(N)Cc2ccccc2)C(=O)NC(Cc2ccccc2)C(=O)NC(Cc2c[nH]c3ccccc23)C(=O)NC(CCCCN)C(=O)NC(C(C)O)C(=O)N1 (stereo unspecified) | > 100 µM | > 100 µM | > 100 µM | > 100 µM | > 100 µM | > 100 µM | > 100 µM | > 100 µM | > 100 µM | –
7 | Cc1nc2c(Cl)cc(Cl)cc2c2c1CCO2 | > 100 µM | > 100 µM | > 100 µM | > 100 µM | > 100 µM | – | > 100 µM | > 100 µM | > 100 µM | –
8 | Cc1[nH]c(=O)nc(N/N=C/c2c3ccccc3c(Cl)c3ccccc23)c1C(=O)Nc1ccc(Cl)cc1 | – | > 100 µM | > 100 µM | > 100 µM | > 100 µM | > 100 µM | > 100 µM | > 100 µM | > 100 µM | –
9 | CCC1c2[nH]c3ccccc3c2C[C@H]2C(=O)NC(C)C(=O)N12 (stereo partly specified) | – | > 100 µM | > 100 µM | > 100 µM | > 100 µM | > 100 µM | > 100 µM | > 100 µM | > 100 µM | > 100 µM
10 | CCC1(O)C(=O)OCc2c1cc1n(c2=O)Cc2cc3cc4c(cc3nc2-1)OCO4 (stereo unspecified) | – | 0.102 µM | – | 19.9 µM | 7 µM | 0.589 µM | 0.693 µM | 0.383 µM | 1.29 µM | 1.81 µM
11 | Cc1ccc([N+](=O)[O-])cc1S(=O)(=O)Nc1ccc(C2=NN(S(=O)(=O)c3cc([N+](=O)[O-])ccc3C)C(c3cccs3)C2)cc1 (stereo unspecified) | – | > 100 µM | > 100 µM | > 100 µM | 67.6 µM | 52.6 µM | > 100 µM | 79.5 µM | > 100 µM | > 100 µM
12 | O=[N+]([O-])c1ccc(C[P+]2(c3ccccc3)CCCCC2)cc1 (tested in a mixture with another compound) | > 100 µM | > 100 µM | – | – | > 100 µM | > 100 µM | > 100 µM | – | > 100 µM | > 100 µM
13 | CCC1(CC)C(=O)NC(=O)NC1=S | > 100 µM | > 100 µM | – | > 100 µM | > 100 µM | > 100 µM | > 100 µM | > 100 µM | > 100 µM | > 100 µM
14 | C/C(Cc1ccc2c(c1)OCO2)=N\N=c1\sc2ccccc2n1C | > 100 µM | > 100 µM | > 100 µM | > 100 µM | > 100 µM | > 100 µM | > 100 µM | > 100 µM | > 100 µM | –
15 | N=C1OC(CN2CCN(c3ccccc3)CC2)CN1C(=O)Nc1ccccc1 (stereo unspecified) | – | > 100 µM | > 100 µM | > 100 µM | > 100 µM | – | > 100 µM | > 100 µM | > 100 µM | > 100 µM
16 | NCCCn1c(Cl)nc2ccccc21 | – | > 100 µM | > 100 µM | > 100 µM | > 100 µM | > 100 µM | > 100 µM | > 100 µM | > 100 µM | > 100 µM
